Read-outs that look alike come from different tables or passages of the source.
Biological target: T1, F508delCFTR (Homo sapiens, UniProt P13569, DEL508-508)
T1 construct: expressed in transfected cells; host or cells: CFBE41o- human lung-derived epithelial cells (CFBE4lo-F508delCFTR-HRP), doxycycline-inducible
Assay: Cell Surface Expression-Horse Radish Peroxidase (CSE-HRP) Assay;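 on Maximum % activity (with co-corrector): co-corrector and positive control are both the same reference corrector at 2 µM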;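 on Maximum % activity (without co-corrector): percent of the 2 µM on-plate positive control corrector response above DMSO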
Format: cell-based
Details: for Maximum % activity (with co-corrector) / Emax: maximum at any tested concentration, normalized to on-plate positive control; for Emax: read-out: Maximum % activity (without co-corrector)
Method: Cell Surface Expression-Horse Radish Peroxidase (CSE-HRP) Assay;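 on Maximum % activity (with co-corrector): co-corrector and positive control are both the same reference corrector at 2 µM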;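 on Maximum % activity (without co-corrector): percent of the 2 µM on-plate positive control corrector response above DMSO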
The development was achieved by expressing the F508delCFTR mutation along with a horseradish peroxidase (HRP) in the fourth exofacial loop, and then measuring the HRP activity using luminescence readout from these cells, CFBE4lo-F508delCFTR-HRP, that were incubated overnight with the test corrector compounds, either without or with the co-corrector. […] The test compounds were then added either without or with a co-corrector at the required concentrations and further incubated for 18-24 hours at 33° C. The highest concentration tested was 20 μM with an 8-point concentration response curve using a 3-fold dilution in both the test compound without or with the co-corrector. Three replicate plates were run to determine one EC50. All plates contained negative controls (dimethyl sulfoxide, DMSO) and positive control (2 μM of 3-[(2R,4R)-4-({[1-(2,2-difluoro-1,3-benzodioxol-5-yl)cyclopropyl]carbonyl}amino)-7-methoxy-3,4-dihydro-2H-chromen-2-yl]benzoic acid) as well as on-plate concentration response of the positive control. […] The raw counts from the experiment were analyzed using Accelrys® Assay Explorer v3.3.
1−[3*SDPositive Control+3*SDNegative Control/Absolute(MeanPositive Control−MeanNegative Control)]
wherein “SD” is standard deviation.
The % activity measured at each of the 8 test concentrations of the test compound added either without or with a co-corrector (2 μM of 3-[(2R,4R)-4-({[1-(2,2-difluoro-1,3-benzodioxol-5-yl)cyclopropyl]carbonyl}amino)-7-methoxy-3,4-dihydro-2H-chromen-2-yl]benzoic acid) was normalized to the on-plate positive control using the following formulae:
% activity(Test compound without co-corrector)=[(test compound without co-corrector response−DMSO response)/(positive control response−DMSO response)]*100
% activity(Test compound with co-corrector)=[(test compound with co-corrector response−DMSO response)/(positive control response−DMSO response)]*100
The maximum % activity achieved for the test compound either without or with a co-corrector at any tested concentration is presented in Table 4 along with the respective EC50's calculated using the following general sigmoidal curve with variable Hill slope equation (described as Model 42 in the Accelrys® Assay Explorer v3.3 software):
General sigmoidal curve with concentration, response, top, bottom, EC50 and Hill slope. This model describes a sigmoidal curve with an adjustable baseline, a. The equation can be used to fit curves where response is either increasing or decreasing with respect to the independent variable, “x”.
“x” is a concentration of drug under test. “y” is the response. “a” is the maximum response, and “d” is the minimum response “c” is the inflection point (EC50) for the curve. That is, “y” is halfway between the lower and upper asymptotes when x=c. “b” is the slope-factor or Hill coefficient. The sign of b is positive when the response increases with increasing dose and is negative when the response decreases with increasing dose (inhibition).

[1] = CSE-HRP, test compound without co-corrector, read-out: EC50 (without co-corrector)
[2] = CSE-HRP, with co-corrector (2 μM of 3-[(2R,4R)-4-({[1-(2,2-difluoro-1,3-benzodioxol-5-yl)cyclopropyl]carbonyl}amino)-7-methoxy-3,4-dihydro-2H-chromen-2-yl]benzoic acid), read-out: EC50 (with co-corrector)
[3] = CSE-HRP, with co-corrector (2 μM)
[4] = test compound without co-corrector
[5] = test compound without co-corrector, read-out: EC50 (without co-corrector)
[6] = with co-corrector (2 μM of 3-[(2R,4R)-4-({[1-(2,2-difluoro-1,3-benzodioxol-5-yl)cyclopropyl]carbonyl}amino)-7-methoxy-3,4-dihydro-2H-chromen-2-yl]benzoic acid)
[7] = with co-corrector (2 μM of 3-[(2R,4R)-4-({[1-(2,2-difluoro-1,3-benzodioxol-5-yl)cyclopropyl]carbonyl}amino)-7-methoxy-3,4-dihydro-2H-chromen-2-yl]benzoic acid), read-out: EC50 (with co-corrector)

T1 sequence (P13569 with tags, fused parts or gaps DEL508-508): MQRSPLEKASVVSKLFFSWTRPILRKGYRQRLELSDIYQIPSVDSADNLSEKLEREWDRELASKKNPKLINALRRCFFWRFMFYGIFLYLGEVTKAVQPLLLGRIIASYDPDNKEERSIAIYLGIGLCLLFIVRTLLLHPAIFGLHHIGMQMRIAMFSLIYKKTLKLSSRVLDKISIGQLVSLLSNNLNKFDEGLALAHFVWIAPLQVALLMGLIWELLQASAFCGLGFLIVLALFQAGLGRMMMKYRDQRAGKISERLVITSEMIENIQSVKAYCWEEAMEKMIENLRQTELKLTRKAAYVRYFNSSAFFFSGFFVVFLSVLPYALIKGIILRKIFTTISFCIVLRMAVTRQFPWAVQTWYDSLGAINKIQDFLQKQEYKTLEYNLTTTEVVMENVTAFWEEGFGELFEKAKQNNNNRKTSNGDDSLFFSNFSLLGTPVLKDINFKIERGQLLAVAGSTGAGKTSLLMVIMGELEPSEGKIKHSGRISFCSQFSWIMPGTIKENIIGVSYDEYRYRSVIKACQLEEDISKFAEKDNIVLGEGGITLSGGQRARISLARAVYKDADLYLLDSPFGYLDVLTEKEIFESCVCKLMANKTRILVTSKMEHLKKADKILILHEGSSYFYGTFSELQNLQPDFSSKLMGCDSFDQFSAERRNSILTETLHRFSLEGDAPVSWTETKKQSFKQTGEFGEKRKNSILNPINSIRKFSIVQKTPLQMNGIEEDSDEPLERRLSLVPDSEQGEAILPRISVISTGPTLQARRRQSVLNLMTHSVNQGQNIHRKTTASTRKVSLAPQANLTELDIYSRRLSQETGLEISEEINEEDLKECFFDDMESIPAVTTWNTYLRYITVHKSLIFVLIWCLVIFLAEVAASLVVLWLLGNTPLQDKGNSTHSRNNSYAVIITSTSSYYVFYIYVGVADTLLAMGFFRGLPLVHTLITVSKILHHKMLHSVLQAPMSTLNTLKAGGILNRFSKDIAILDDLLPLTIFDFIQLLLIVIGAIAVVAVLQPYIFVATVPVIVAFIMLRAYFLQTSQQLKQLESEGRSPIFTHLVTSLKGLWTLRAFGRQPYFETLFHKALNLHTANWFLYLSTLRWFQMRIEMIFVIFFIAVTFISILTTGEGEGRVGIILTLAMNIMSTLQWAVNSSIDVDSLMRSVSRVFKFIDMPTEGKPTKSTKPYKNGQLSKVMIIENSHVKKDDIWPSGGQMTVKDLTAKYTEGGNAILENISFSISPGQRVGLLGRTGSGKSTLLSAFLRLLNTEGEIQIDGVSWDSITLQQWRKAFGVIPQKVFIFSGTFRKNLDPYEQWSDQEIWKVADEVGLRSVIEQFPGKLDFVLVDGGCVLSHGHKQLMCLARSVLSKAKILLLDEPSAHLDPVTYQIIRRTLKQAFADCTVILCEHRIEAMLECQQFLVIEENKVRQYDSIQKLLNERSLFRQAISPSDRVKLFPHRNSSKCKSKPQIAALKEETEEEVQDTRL

| Compound | EC50 [1] [nM] | EC50 [2] [nM] | Maximum % activity (with co-corrector) [3] | Emax (CSE-HRP, without co-corrector) [%] | Emax [4] [%] | EC50 [5] [nM] | Maximum % activity (with co-corrector) [6] | EC50 [7] [nM] | Maximum % activity (with co-corrector) (with co-corrector (2 μM)) | Emax (without co-corrector) [%] |
| --- | --- | --- | --- | --- | --- | --- | --- | --- | --- | --- |
| COc1ccc(C(C)(C)C)cc1CN[C@H]1[C@H](C(C)(C)C)[C@@H](C(=O)O)N(C(=O)C2CCCCS2(=O)=O)[C@H]1c1ccccc1 (stereo partly shown) [II-153] | 1000 to 10000 | 1000 to 10000 | +++ (≥350) | > 200 | – | – | – | – | – | – |
| COc1ncc(C(F)(F)F)cc1N[C@H]1[C@H](C(C)(C)C)[C@@H](C(=O)O)N(C(=O)C2C3CCCC32)[C@H]1c1cccnc1N(C)C (stereo partly shown) [II-483] | – | – | – | – | < 100 | 1000 to 10000 | ++ (≥150 and <350) | 1000 to 10000 | – | – |
| COc1ccc(C(C)(C)C)cc1CN[C@H]1[C@H](C(C)(C)C)[C@@H](C(=O)O)N(C(=O)c2ccc(Oc3ccccc3)cc2)[C@H]1c1cccnc1N(C)C [II-464] | – | – | – | – | 100 to 200 | < 1000 | +++ (≥350) | < 1000 | – | – |
| COc1ccc(C(C)(C)C)cc1CN[C@H]1[C@H](C(C)(C)C)[C@@H](C(=O)O)N(C(=O)Cc2ccc(F)cc2)[C@H]1c1ccccc1 [II-181] | 1000 to 10000 | 1000 to 10000 | +++ (≥350) | 100 to 200 | – | – | – | – | – | – |
| COc1ccc(Cl)cc1CN[C@H]1[C@H](C(C)(C)C)[C@@H](C(=O)O)N(C(=O)C2CCCCC2)[C@H]1c1ccccc1OC [Example I-57] | – | – | – | – | – | 1000 to 10000 | – | 1000 to 10000 | +++ (≥350) | 100 to 200 |
| COc1ccc(C(C)(C)C)cc1CN[C@H]1[C@H](C(C)(C)C)[C@@H](C(=O)O)N(C(=O)C(C)Oc2ccc(F)cc2)[C@H]1c1ccccc1 (stereo partly shown) [II-310] | 1000 to 10000 | < 1000 | +++ (≥350) | > 200 | – | – | – | – | – | – |
| COc1ccc(C(C)(C)C)cc1CN[C@H]1[C@H](C(C)(C)C)[C@@H](C(=O)O)N(C(=O)OC(C)C)[C@H]1c1ccccc1C [II-582] | – | – | – | – | > 200 | 1000 to 10000 | +++ (≥350) | < 1000 | – | – |
| COc1nc(C(C)(C)C)ccc1CN[C@H]1[C@H](C23CC(C2)C3)[C@@H](C(=O)O)N(C(=O)OC(C)C)[C@H]1c1ccccc1 [Example 70, (2S,3S,4S,5S)-3-(bicyclo[1.1.1]pentan-1-yl)-4-{[(6-tert-butyl-2-methoxypyridin-3-yl)methyl]amino}-5-phenyl-1-{[(propan-2-yl)oxy]carbonyl}pyrrolidine-2-carboxylic acid] | – | – | – | – | – | 1000 to 10000 | – | 1000 to 10000 | +++ (≥350) | 100 to 200 |
| COc1ccc(C(C)(C)C)cc1CN[C@H]1[C@H](C(C)(C)C)[C@@H](C(=O)O)N(C(=O)C2CCc3cccc(OC)c3C2)[C@H]1c1ccccc1 (stereo partly shown) [II-317] | – | – | – | – | > 200 | < 1000 | +++ (≥350) | < 1000 | – | – |

More lines, now with the values ahead:

| EC50 [1] [nM] | EC50 [2] [nM] | Maximum % activity (with co-corrector) [3] | Emax (CSE-HRP, without co-corrector) [%] | Emax [4] [%] | EC50 [5] [nM] | Maximum % activity (with co-corrector) [6] | EC50 [7] [nM] | Maximum % activity (with co-corrector) (with co-corrector (2 μM)) | Emax (without co-corrector) [%] | Compound |
| --- | --- | --- | --- | --- | --- | --- | --- | --- | --- | --- |
| – | – | – | – | 100 to 200 | 1000 to 10000 | +++ (≥350) | 1000 to 10000 | – | – | COc1ccc(C(F)(F)F)cc1CN[C@@H]1[C@@H](C(C)(C)C)[C@H](C(=O)O)N(C(=O)C2CCCCC2)[C@@H]1c1cccnc1N(C)C (racemic) [III-41] |
| – | – | – | – | < 100 | 1000 to 10000 | – | 1000 to 10000 | ++ (≥150 and <350) | – | COc1cc(C(F)(F)F)ccc1CN[C@@H]1[C@@H](C(C)(C)C)[C@H](C(=O)O)N(C(=O)C2COCCO2)[C@@H]1c1ccccc1 (mixture of isomers) [III-113] |
| – | – | – | – | < 100 | > 10000 | – | 1000 to 10000 | ++ (≥150 and <350) | – | CC(C)(C)[C@H]1[C@H](NCc2cc3ccccc3nc2O)[C@H](c2ccccc2)N(C(=O)C2CCCCC2)[C@@H]1C(=O)O [III-180] |
| – | – | – | – | < 100 | > 10000 | – | 1000 to 10000 | + (<150) | – | CC(C)(C)[C@@H]1[C@@H](NCc2cc(F)ccc2S(C)(=O)=O)[C@@H](c2ccccc2)N(C(=O)C2CCCCC2)[C@H]1C(=O)O (racemic) [III-108] |

Reference: patent US20180099931A1 (AbbVie S.à.r.l., priority 2016, published 2018)
